Source: paper PMC7680126, “Structural asymmetry governs the assembly and GTPase activity of McrBC restriction complexes” (Nature Communications, 2020)

What was measured:
[1] = biological target: T1, TgMcrB (full-length) (Thermococcus gammatolerans, UniProt C5A3Z3); experiment: malachite green phosphate release; type: biochemical; settings: 1 mM GTP, 65 °C, pH 8.0, 150 mM KCl, 5 mM MgCl2; no McrC
T1 construct: gene TGAM_0453; full-length, residues 1-613; 6xHis tag cut by HRV 3C (Gly-Pro left); E. coli BL21(DE3); hexamer

[2] = biological target: T2, TgMcrBC complex (Thermococcus gammatolerans, UniProt C5A3Z3); experiment: malachite green phosphate release; type: biochemical; settings: 1 mM GTP, 0.1 μM TgMcrC, 65 °C, pH 8.0, 150 mM KCl, 5 mM MgCl2
T2 construct: gene TGAM_0453; full-length McrB (1-613) and McrC (1-458); tags cut by HRV 3C (Gly-Pro left); E. coli; with McrC, endonuclease subunit of McrBC restriction complex (5-methylcytosine restriction system component McrC)
T2 sequence (C5A3Z3 1-613): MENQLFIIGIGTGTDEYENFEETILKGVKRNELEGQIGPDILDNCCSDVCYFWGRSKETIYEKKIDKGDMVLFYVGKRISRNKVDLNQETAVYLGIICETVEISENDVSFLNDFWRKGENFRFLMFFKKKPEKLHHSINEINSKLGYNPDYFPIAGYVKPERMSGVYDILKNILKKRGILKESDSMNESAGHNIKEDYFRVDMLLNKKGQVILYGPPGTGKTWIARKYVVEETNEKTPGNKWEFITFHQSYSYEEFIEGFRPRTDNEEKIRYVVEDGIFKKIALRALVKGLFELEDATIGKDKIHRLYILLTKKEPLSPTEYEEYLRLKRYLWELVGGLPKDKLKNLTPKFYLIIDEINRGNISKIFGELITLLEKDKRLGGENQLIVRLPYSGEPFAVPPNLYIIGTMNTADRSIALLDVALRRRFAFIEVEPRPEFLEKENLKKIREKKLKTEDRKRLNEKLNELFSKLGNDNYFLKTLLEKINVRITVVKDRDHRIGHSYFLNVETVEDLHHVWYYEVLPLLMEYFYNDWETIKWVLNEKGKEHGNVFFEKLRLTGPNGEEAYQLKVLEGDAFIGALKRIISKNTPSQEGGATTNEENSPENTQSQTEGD
T2 sequence (C5A3Z2 1-458 partner): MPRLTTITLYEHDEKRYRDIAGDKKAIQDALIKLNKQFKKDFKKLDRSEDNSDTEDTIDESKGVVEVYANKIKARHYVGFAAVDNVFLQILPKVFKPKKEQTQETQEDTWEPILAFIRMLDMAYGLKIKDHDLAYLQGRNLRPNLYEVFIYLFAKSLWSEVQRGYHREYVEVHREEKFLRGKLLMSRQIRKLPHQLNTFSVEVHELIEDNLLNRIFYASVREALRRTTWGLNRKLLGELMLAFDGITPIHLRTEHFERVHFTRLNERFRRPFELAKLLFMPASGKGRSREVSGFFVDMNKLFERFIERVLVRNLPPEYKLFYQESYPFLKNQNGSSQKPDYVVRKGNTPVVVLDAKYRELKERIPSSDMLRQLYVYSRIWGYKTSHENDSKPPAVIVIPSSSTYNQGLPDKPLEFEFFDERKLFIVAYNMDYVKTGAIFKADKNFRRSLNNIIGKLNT

Nc1nc2c(ncn2[C@@H]2O[C@H](COP(=O)(O)OP(=O)(O)OP(=O)(O)O)[C@@H](O)[C@H]2O)c(=O)[nH]1 [GTP]
basal GTPase activity [1]: Alanine substitutions at Asn410 and Asp413 in full-length TgMcrB abolish both basal and McrC-stimulated GTPase activity
McrC-stimulated GTPase activity [2]: Purified TgMcrC similarly stimulates TgMcrB’s basal GTPase activity
